Measured values reported in ChEMBL document CHEMBL3286257, “Development of second generation EP2 antagonists with high selectivity” (Eur J Med Chem, 2014).

Target: T1, Prostaglandin D2 receptor (Homo sapiens) (UniProt Q13258)
T1 sequence (whole entry): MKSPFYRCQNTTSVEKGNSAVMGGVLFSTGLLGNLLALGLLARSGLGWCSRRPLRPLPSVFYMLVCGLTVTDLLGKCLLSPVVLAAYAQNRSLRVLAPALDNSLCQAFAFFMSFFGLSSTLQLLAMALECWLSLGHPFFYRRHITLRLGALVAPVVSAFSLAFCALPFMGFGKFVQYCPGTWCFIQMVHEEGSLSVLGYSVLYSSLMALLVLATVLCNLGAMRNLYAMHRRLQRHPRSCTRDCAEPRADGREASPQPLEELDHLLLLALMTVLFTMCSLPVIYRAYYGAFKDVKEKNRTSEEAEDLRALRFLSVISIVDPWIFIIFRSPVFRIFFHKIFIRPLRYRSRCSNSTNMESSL
Test: Antagonist activity at DP1 receptor (unknown origin) expressed in rat C6 cells by TR-FRET assay
Assay type: cell-based
Settings: not given
Cc1cc2ccccc2n1CCNC(=O)c1ccc(N2CCCCCC2)cc1 showed a Kb of 7720 nM.

System: C6
Test: Cytotoxicity against rat C6 cells
Assay type: cell-based
Settings: c6
Cc1cc2ccccc2n1CCNC(=O)c1ccc(N2CCCCCC2)cc1 showed a CC50 of 327000 nM.

System: not listed separately
Test: Metabolic stability of the compound in human liver microsomes assessed as compound remaining at 10 uM after 60 mins
Assay type: ADME
Settings: read-out: Stability
Cc1cc2ccccc2n1CCNC(=O)c1cnc(Nc2ccccc2)nc1 gave a remaining at 1 h, 10 µM of 50%.
With Cc1cc2ccccc2n1CCNC(=O)c1ccc(-n2cnnn2)cc1 the remaining at 1 h, 10 µM was 26%.
With Cc1cc2ccccc2n1CCNC(=O)c1ccc(N2CCCCCC2)cc1 the remaining at 1 h, 10 µM was 28%.

System: not listed separately
Test: Metabolic stability of the compound in mouse liver microsomes assessed as compound remaining at 10 uM after 30 mins
Assay type: ADME
Settings: read-out: Stability
In the case of Cc1cc2ccccc2n1CCNC(=O)c1cnc(Nc2ccccc2)nc1, the remaining at 0.5 h, 10 µM is reported as 59%.
Cc1cc2ccccc2n1CCNC(=O)c1ccc(-n2cnnn2)cc1 gave a remaining at 0.5 h, 10 µM of 26%.
Cc1cc2ccccc2n1CCNC(=O)c1ccc(N2CCCCCC2)cc1 showed a remaining at 0.5 h, 10 µM of 37%.

System: not listed separately
Test: Metabolic stability of the compound in mouse liver microsomes assessed as compound remaining at 10 uM after 60 mins
Assay type: ADME
Settings: read-out: Stability
Molecule Cc1cc2ccccc2n1CCNC(=O)c1cnc(Nc2ccccc2)nc1 has a remaining at 1 h, 10 µM of 35%.
With Cc1cc2ccccc2n1CCNC(=O)c1ccc(-n2cnnn2)cc1 the remaining at 1 h, 10 µM was 7.5%.
Cc1cc2ccccc2n1CCNC(=O)c1ccc(N2CCCCCC2)cc1 showed a remaining at 1 h, 10 µM of 12%.

Organism: Homo sapiens
Test: Selectivity index, ratio of KB for DP1 receptor (unknown origin) to KB for EP2 receptor (unknown origin)
Settings: not given
With Cc1cc2ccccc2n1CCNC(=O)c1ccc(N2CCCCCC2)cc1 the Ratio was 342.

System: not listed separately
Test: Aqueous solubility of the compound by nephelometry method
Assay type: physicochemical
Settings: buffer
With Cc1cc2ccccc2n1CCNC(=O)c1cnc(Nc2ccccc2)nc1 the solubility kinetic was less than 25 µM.
Molecule Cc1cc2ccccc2n1CCNC(=O)c1ccc(-n2cnnn2)cc1 has a solubility kinetic of less than 25 µM.
In the case of Cc1cc2ccccc2n1CCNC(=O)c1ccc(N2CCCCCC2)cc1, the solubility kinetic is reported as less than 25 µM.

System: not listed separately
Test: Metabolic stability of the compound in human liver microsomes assessed as compound remaining at 10 uM after 30 mins
Assay type: ADME
Settings: read-out: Stability
Cc1cc2ccccc2n1CCNC(=O)c1cnc(Nc2ccccc2)nc1 showed a remaining at 0.5 h, 10 µM of 67%.
Molecule Cc1cc2ccccc2n1CCNC(=O)c1ccc(-n2cnnn2)cc1 has a remaining at 0.5 h, 10 µM of 54%.
Cc1cc2ccccc2n1CCNC(=O)c1ccc(N2CCCCCC2)cc1 showed a remaining at 0.5 h, 10 µM of 64%.

Target: Prostaglandin E2 receptor EP4 subtype (Homo sapiens) (UniProt P35408)
Sequence (P35408 whole entry): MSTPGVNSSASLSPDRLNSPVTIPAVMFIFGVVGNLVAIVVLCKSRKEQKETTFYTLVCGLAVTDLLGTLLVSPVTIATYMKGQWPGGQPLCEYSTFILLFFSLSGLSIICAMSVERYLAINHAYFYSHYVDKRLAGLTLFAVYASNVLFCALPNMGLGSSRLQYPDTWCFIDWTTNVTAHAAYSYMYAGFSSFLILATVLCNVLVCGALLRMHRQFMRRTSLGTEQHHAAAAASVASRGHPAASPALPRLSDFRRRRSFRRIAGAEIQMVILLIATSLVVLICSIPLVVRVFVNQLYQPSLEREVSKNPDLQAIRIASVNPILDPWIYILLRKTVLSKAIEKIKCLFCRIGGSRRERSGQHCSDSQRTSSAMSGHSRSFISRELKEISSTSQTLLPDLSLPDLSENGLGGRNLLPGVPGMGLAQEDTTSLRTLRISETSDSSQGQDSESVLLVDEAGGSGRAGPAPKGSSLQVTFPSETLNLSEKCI
Test: Antagonist activity at EP4 receptor (unknown origin) expressed in rat C6 cells assessed as inhibition of PGE2-induced response
Assay type: cell-based
Settings: not given
With Cc1cc2ccccc2n1CCNC(=O)c1ccc(N2CCCCCC2)cc1 the Kb was 23600 nM.

System: not listed separately
Test: Metabolic stability of the compound in human liver microsomes assessed as compound remaining at 10 uM after 15 mins
Assay type: ADME
Settings: read-out: Stability
Molecule Cc1cc2ccccc2n1CCNC(=O)c1cnc(Nc2ccccc2)nc1 has a remaining at […], 10 µM of 88%.
Cc1cc2ccccc2n1CCNC(=O)c1ccc(-n2cnnn2)cc1 gave a remaining at […], 10 µM of 75%.
Cc1cc2ccccc2n1CCNC(=O)c1ccc(N2CCCCCC2)cc1 showed a remaining at […], 10 µM of 66%.

Organism: Homo sapiens
Test: Selectivity index, ratio of KB for IP receptor (unknown origin) to KB for EP2 receptor (unknown origin)
Settings: not given
Work on Cc1cc2ccccc2n1CCNC(=O)c1ccc(N2CCCCCC2)cc1 yielded a Ratio of 375.

System: not listed separately
Test: Metabolic stability of the compound in mouse liver microsomes assessed as compound remaining at 10 uM after 15 mins
Assay type: ADME
Settings: read-out: Stability
Cc1cc2ccccc2n1CCNC(=O)c1cnc(Nc2ccccc2)nc1 gave a remaining at […], 10 µM of 71%.
Molecule Cc1cc2ccccc2n1CCNC(=O)c1ccc(-n2cnnn2)cc1 has a remaining at […], 10 µM of 50%.
For Cc1cc2ccccc2n1CCNC(=O)c1ccc(N2CCCCCC2)cc1, the remaining at […], 10 µM was 49%.

Target: Prostaglandin E2 receptor EP2 subtype (Homo sapiens) (UniProt P43116)
Sequence (P43116 whole entry): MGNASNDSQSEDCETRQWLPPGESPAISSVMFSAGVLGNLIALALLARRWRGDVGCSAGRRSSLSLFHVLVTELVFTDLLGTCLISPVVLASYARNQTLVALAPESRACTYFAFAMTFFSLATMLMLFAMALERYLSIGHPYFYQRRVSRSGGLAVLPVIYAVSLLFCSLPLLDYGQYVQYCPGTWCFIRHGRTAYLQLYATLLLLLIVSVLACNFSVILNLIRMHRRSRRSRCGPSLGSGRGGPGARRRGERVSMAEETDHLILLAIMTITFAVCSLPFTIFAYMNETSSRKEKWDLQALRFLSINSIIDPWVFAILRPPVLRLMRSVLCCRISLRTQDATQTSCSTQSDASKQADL
Test: Antagonist activity at EP2 receptor (unknown origin) expressed in rat C6 cells assessed as inhibition of PGE2-induced response
Assay type: cell-based
Settings: not given
With Cc1cc2ccccc2n1CCNC(=O)c1cnc(Nc2ccccc2)nc1 the Kb was 1.6 nM.
Cc1cc2ccccc2n1CCNC(=O)c1ccc(-n2cnnn2)cc1 showed a Kb of 42.2 nM.
In the case of Cc1cc2ccccc2n1CCNC(=O)c1ccc(NC(=N)N)cc1, the Kb is reported as greater than 1000 nM.
Work on Cc1cc2ccccc2n1CCNC(=O)C1CCC(=O)N1 (stereo not drawn) yielded a Kb greater than 1000 nM.
Work on Cc1cc2ccccc2n1CCNC(=O)c1ccc2[nH]nnc2c1 yielded a Kb of 87.5 nM.
Work on Cc1cc2ccccc2n1CCNC(=O)c1ccc(O)cc1 yielded a Kb greater than 1000 nM.
For Cc1cc2ccccc2n1CCNC(=O)c1ccc(-n2nn[nH]c2=S)cc1, the Kb was 32.2 nM.
For CCOC(=O)C1CCN(c2ccc(C(=O)NCCn3c(C)cc4ccccc43)cc2)CC1, the Kb was 500 nM.
Molecule Cc1cc2ccccc2n1CCNC(=O)c1ccc(N2CCCCCC2)cc1 has a Kb of 22.6 nM.

Organism: Homo sapiens
Test: Selectivity index, ratio of KB for EP4 receptor (unknown origin) to KB for EP2 receptor (unknown origin)
Settings: not given
With Cc1cc2ccccc2n1CCNC(=O)c1ccc(N2CCCCCC2)cc1 the Ratio was 1040.

Target: Prostacyclin receptor (Homo sapiens) (UniProt P43119)
Sequence (P43119 whole entry): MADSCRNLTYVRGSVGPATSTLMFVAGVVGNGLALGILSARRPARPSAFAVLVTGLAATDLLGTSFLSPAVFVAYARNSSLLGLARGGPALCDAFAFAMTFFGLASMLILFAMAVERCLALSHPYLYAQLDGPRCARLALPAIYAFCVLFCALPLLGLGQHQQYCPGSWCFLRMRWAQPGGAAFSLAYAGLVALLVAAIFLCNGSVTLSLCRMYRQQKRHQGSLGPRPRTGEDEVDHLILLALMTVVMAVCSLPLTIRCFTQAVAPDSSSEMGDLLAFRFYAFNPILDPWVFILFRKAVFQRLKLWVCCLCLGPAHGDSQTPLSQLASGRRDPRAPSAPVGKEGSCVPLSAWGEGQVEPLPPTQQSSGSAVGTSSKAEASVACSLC
Test: Antagonist activity at IP receptor (unknown origin) expressed in rat C6 cells by TR-FRET assay
Assay type: cell-based
Settings: not given
Cc1cc2ccccc2n1CCNC(=O)c1ccc(N2CCCCCC2)cc1 gave a Kb of 8500 nM.

System: EP2 receptor
Test: Therapeutic index, ratio of CC50 for rat C6 cells to KB for EP2 receptor (unknown origin)
Assay type: cell-based
Settings: read-out: TI
Cc1cc2ccccc2n1CCNC(=O)c1ccc(N2CCCCCC2)cc1 showed a selectivity ratio of 14500.
